Test results published in ChEMBL document CHEMBL1122334, “New azacannabinoids highly active in the central nervous system” (1983).

Key:
Type in all cases: functional
Rattus norvegicus [1] = assay: The compound was tested for hyperexcitability in rat at a dose of 5 mg/Kg
Rattus norvegicus [2] = assay: The compound was tested for methamphetamine antagonism in rat at a dose of 1 mg/Kg
Rattus norvegicus [3] = assay: The compound was tested for hyperexcitability in rat at a dose of 80 mg/Kg
Rattus norvegicus [4] = assay: The compound was tested for serotonin antagonism in rat at a dose of 2 mg/Kg
Rattus norvegicus [5] = species on record: Rattus norvegicus; assay: The compound was tested for analgesic activity using (RTF) tail-flick test in rat
Rattus norvegicus [6] = assay: The compound was tested for decreasing motor activity in rat at a dose of 2 mg/Kg
Rattus norvegicus [7] = assay: The compound was tested for serotonin antagonism in rat at a dose of 1 mg/Kg
Mus musculus [8] = species on record: Mus musculus; assay: The compound was tested for analgesic activity using writhing (W) test in mouse
Mus musculus [9] = species on record: Mus musculus; assay: The compound was tested for activity to decrease fighting in mouse
Rattus norvegicus [10] = assay: The compound was tested for hyperexcitability in rat at a dose of 20 mg/Kg
Rattus norvegicus [11] = assay: The compound was tested for decreasing motor activity in rat. at a dose of 5 mg/Kg
Rattus norvegicus [12] = assay: The compound was tested for methamphetamine antagonism in rat at a dose of 2 mg/Kg

CC(CCCc1ccc(F)cc1)c1cc(O)c2c(c1)OC(C)(C)C1=C2CN(CC(=O)NC(N)=O)CC1 (configuration not stated)
Possible response (Rattus norvegicus [1]): 46%
Decrease in activity (Rattus norvegicus [2]): 64%
Possible response (Rattus norvegicus [3]): 100%
Decrease in activity (Rattus norvegicus [4]): 72%
ED50 (Rattus norvegicus [5]): 1.6 mg/kg
Decrease in activity (Rattus norvegicus [6]): 88%
Decrease in activity (Rattus norvegicus [7]): 50%
ED50 (Mus musculus [8]): 0.7 mg/kg
ED50 (Mus musculus [9]): 2 mg/kg
Possible response (Rattus norvegicus [10]): 90%
Decrease in activity (Rattus norvegicus [11]): 55%
Decrease in activity (Rattus norvegicus [12]): 75%
